From US8465947B2, “Lantibiotic biosynthetic gene clusters from A. garbadinensis and A. liguriae” (Novacta Biosystems Limited, priority 2006, dated 2013) come the findings set out here.

≈ marks a conversion by molar mass, not a printed value.

The assay relates to C. difficile. Put plainly: MIC against C. difficile, NCCLS agar dilution method for anaerobic bacteria. To be noted: calcium 50 μg/ml. The class given is cell-based, Clostridium difficile. As to the method:
Minimum inhibitory concentrations (MICs) for C. difficile were determined and antimicrobial agent stock solutions were prepared and stored according to the NCCLS reference agar dilution method for anaerobic bacteria (M11-A5, 2001). Two-fold serial antibiotic dilutions were prepared in Wilkens-Chalgren agar (WCA). Test organisms were selected from 48 hour growth on Braziers (C.C.E.Y.) agar, subcultured in Schaedler broth to a density equivalent to a McFarland 0.5 standard (1×10^8 CFU/ml), with a final inoculum onto WCA plates of approximately 10^5 CFU/spot. Bacteroides fragilis ATCC 25285 was included as a reference control strain and Metronidazole was used as a reference antibiotic for quality control. All manipulations were performed in duplicate in ambient atmosphere in pre-reduced media with only brief exposure to oxygen. Plates were incubated anaerobically for 48 hours at 37° C. with the MIC defined as the concentration of drug where a marked reduction occurred in the appearance of growth on the test plate compared to growth on the anaerobic control plate.
Culture media were supplemented with calcium ions (as calcium chloride) at 50 μg/ml except where higher concentrations are indicated.

Turning to `CC[C@H](C)[C@@H]1NC(=O)[C@@H]2NC(=O)[C@H](CC(C)C)NC(=O)[C@H](NC(=O)[C@@H]3CSC[C@@H](NC(=O)[C@@H](N)Cc4c[nH]c5ccccc45)C(=O)N[C@@H](CO)C(=O)NCC(=O)N[C@@H](Cc4c[nH]c5ccccc45)C(=O)N[C@@H](C(C)C)C(=O)N3)[C@H](C)SC[C@H](NC(=O)[C@H](CCC(=O)O)NC1=O)C(=O)NCC(=O)N[C@H]1C(=O)N[C@@H](CC(C)C)C(=O)N[C@@H](C(C)C)C(=O)N[C@@H](CS[C@H]2C)C(=O)N[C@@H](C)C(=O)N[C@H](C(=O)O)CS[C@H]1C` [Compound IX, L-Tryp(0)deoxyactagardine B], the “MIC C. difficile 19126” value was 2 µg/mL (≈ 0.971 µM) and the “MIC C. difficile 37779” value worked out at 1 µg/mL (≈ 0.485 µM).

For `CC[C@H](C)[C@@H]1NC(=O)[C@@H]2NC(=O)[C@H](CC(C)C)NC(=O)[C@H](NC(=O)[C@@H]3CSC[C@@H](NC(=O)[C@@H](N)C(C)C)C(=O)N[C@@H](CO)C(=O)NCC(=O)N[C@@H](Cc4c[nH]c5ccccc45)C(=O)N[C@@H](C(C)C)C(=O)N3)[C@H](C)SC[C@H](NC(=O)[C@H](CCC(=O)O)NC1=O)C(=O)NCC(=O)N[C@H]1C(=O)N[C@@H](CC(C)C)C(=O)N[C@@H](C(C)C)C(=O)N[C@@H](CS[C@H]2C)C(=O)N[C@@H](C)C(=O)N[C@H](C(=O)O)CS[C@H]1C` [Compound VI, L-Val(0)deoxyactagardine B], the “MIC C. difficile 19126” value turned out to be 8 µg/mL (≈ 4.05 µM) and the “MIC C. difficile 37779” value is 8 µg/mL (≈ 4.05 µM).
